Experiments:
serum IFN-alpha = assay: Systemic Type 1 interferon response: serum IFN-alpha by ELISA; conditions: siRNA in lyophilized ND(5)-98-1 nanoparticles, 2 mg/kg IV twice
Description: Mice were injected IV twice with lyophilized ND(5)-98-1 (ND98)-siRNA nanoparticles at 2 mg/kg siRNA prior to (a) infection with 12,000 PFU, or (b) blood collection by cardiac puncture. […] (b) Serum IFN-alpha concentration was determined by ELISA.

influenza virus = assay: Inhibition of influenza viral replication in mouse lung (plaque forming assay); design: species or system mice; conditions: in vivo, iv, 2 mg/kg
TLR7 = target: T1, TLR7 (Homo sapiens, UniProt Q9NYK1); conditions: cited from earlier work
T1 construct: host or cells: human PBMCs (endogenous receptor)
T1 sequence (Q9NYK1 27-1049): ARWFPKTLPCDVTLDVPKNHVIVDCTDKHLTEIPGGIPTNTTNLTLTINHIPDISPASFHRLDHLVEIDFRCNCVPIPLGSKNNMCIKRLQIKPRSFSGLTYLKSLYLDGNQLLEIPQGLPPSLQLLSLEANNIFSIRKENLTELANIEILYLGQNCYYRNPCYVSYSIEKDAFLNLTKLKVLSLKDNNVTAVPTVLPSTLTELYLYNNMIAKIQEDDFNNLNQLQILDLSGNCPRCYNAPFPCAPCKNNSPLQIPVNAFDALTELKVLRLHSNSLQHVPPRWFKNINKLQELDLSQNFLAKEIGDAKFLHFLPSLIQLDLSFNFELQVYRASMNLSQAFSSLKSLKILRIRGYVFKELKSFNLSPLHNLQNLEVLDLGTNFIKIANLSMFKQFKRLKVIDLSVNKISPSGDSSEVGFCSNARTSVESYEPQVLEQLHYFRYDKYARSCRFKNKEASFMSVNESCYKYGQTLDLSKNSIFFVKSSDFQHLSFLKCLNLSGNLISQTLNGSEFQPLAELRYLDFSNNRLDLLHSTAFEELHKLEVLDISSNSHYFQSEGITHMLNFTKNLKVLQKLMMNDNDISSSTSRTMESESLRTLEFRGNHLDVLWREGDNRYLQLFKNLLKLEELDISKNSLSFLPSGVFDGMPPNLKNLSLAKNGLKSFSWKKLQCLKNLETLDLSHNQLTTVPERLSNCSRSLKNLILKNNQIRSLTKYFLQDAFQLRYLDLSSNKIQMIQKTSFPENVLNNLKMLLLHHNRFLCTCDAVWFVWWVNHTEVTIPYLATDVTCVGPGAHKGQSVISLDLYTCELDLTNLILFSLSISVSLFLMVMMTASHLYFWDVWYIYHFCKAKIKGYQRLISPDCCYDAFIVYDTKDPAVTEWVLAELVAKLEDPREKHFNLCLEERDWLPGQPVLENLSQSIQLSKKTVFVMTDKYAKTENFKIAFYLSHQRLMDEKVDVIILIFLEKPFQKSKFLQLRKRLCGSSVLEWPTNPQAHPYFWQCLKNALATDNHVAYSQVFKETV

TLR8 = target: T2, TLR8 (Homo sapiens, UniProt Q9NR97); conditions: cited from earlier work
T2 construct: a strong ligand for both TLR7 and TLR8 in vitro in human PBMCs tranfected with DOTAP; host or cells: human PBMCs (endogenous receptor)
T2 sequence (Q9NR97 27-1041): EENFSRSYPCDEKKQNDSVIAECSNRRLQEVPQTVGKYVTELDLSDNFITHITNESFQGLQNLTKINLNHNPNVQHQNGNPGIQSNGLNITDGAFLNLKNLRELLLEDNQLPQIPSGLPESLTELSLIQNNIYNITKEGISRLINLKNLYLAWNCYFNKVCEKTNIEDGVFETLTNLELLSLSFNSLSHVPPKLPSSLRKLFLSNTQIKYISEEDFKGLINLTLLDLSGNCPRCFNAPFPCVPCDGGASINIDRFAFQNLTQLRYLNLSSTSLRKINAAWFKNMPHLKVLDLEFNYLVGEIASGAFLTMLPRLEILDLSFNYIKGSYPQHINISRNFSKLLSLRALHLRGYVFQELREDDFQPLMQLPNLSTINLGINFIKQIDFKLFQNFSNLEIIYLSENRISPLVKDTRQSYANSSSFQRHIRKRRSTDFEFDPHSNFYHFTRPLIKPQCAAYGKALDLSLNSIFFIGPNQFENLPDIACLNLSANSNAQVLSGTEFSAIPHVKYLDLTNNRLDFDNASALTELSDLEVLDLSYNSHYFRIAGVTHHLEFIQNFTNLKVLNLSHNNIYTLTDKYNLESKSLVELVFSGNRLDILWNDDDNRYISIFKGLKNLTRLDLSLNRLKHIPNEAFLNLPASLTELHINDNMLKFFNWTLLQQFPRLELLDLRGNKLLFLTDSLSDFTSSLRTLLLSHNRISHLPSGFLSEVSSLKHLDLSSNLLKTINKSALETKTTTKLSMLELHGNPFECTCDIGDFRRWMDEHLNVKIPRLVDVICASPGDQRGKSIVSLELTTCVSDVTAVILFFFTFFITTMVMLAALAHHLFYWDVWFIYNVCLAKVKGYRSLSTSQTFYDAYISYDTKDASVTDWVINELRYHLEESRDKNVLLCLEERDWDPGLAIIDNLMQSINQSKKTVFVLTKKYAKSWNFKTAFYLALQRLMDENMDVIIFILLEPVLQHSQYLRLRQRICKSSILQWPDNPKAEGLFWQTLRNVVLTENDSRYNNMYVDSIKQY

Substance | serum IFN-alpha (serum IFN-alpha) | viral titer versus nanoparticles formulated with siGFP-949 (influenza virus) | TLR7 agonist activity (TLR7) | TLR8 agonist activity (TLR8)
5′-CUACACAAAUCAGCGAUUUUU-3′ [siBgal-728] | high levels | significant reductions |  | 
5′-GGAUCUUAUUUCUUCGGAGUU-3′ [siNP-1496] | high levels | significant reductions |  | 
5′-GCCACCGAGCCGAAGGCACC-3′ (all phosphorothioate, sugars by position and methylation of C not given here; lipidoid formulation) [R1263] |  |  | low | low
5′-UUGUUGUUGUUGUUGUUGUU-3′ (all phosphorothioate, sugars by position not given here; lipidoid formulation) [R1362] |  |  | highly active | highly active

From patent US20120009222A1, “MODULATION OF THE IMMUNE RESPONSE” (priority 2008, published 2012)
